Data: ChEMBL document CHEMBL2375211, “2-methoxyjuglone induces apoptosis in HepG2 human hepatocellular carcinoma cells and exhibits in vivo antitumor activity in a H22 mouse hepatocellular carcinoma model” (J Nat Prod, 2013)
The source made the active and inactive calls. The calls are words filed in the database; no cut-off is given here.

Assays:
[1] = tested on: H22; experiment: Antitumor activity against mouse H22 cells allografted in Kunming mouse assessed as decrease in tumor size at 0.5 to 1 mg/kg/day, ip administered 8 days measured after 10 days; type: functional, organism-based
[2] = tested on: Mus musculus; experiment: Toxicity in Kunming mouse allografted with mouse H22 cells assessed as decrease in body weight at 0.25 to 1 mg/kg/day, ip measured every day for 8 days; type: organism-based; design: route intraperitoneal; conditions: in vivo, 192 h
[3] = tested on: H22; experiment: Antitumor activity against mouse H22 cells allografted in Kunming mouse assessed as decrease in weight of tumor mass at 1 mg/kg/day, ip administered 8 days measured after 10 days relative to control; type: functional; design: scale not given: the % may be the effect or the level left; conditions: route intraperitoneal
[4] = tested on: H22; experiment: Antitumor activity against mouse H22 cells allografted in Kunming mouse assessed as decrease in weight of tumor mass at 0.5 mg/kg/day, ip administered 8 days measured after 10 days relative to control; type: functional; design: scale not given: the % may be the effect or the level left; conditions: route intraperitoneal
[5] = tested on: HepG2; experiment: Induction of apoptosis in human HepG2 cells assessed as decrease in Bcl-2 level at 1.6 to 4.8 ug/mL after 24 hrs by Western blot analysis; type: functional, cell-based
[6] = tested on: HepG2; experiment: Induction of apoptosis in human HepG2 cells assessed as increase in Bax level after 24 hrs by Western blot analysis; type: functional, cell-based
[7] = tested on: HepG2; experiment: Induction of apoptosis in human HepG2 cells assessed as PARP cleavage at 1.6 to 4.8 ug/mL after 24 hrs by Western blot analysis; type: functional, cell-based
[8] = tested on: HepG2; experiment: Induction of apoptosis in human HepG2 cells assessed as mitochondrial cytochrome c-dependent caspase-3 activation at 1.6 to 4.8 ug/mL after 24 hrs by Western blot analysis; type: functional, cell-based
[9] = tested on: HepG2; experiment: Induction of apoptosis in human HepG2 cells assessed as mitochondrial cytochrome c-dependent caspase-9 activation at 1.6 to 4.8 ug/mL after 24 hrs by Western blot analysis; type: functional, cell-based
[10] = tested on: HepG2; experiment: Induction of apoptosis in human HepG2 cells assessed as increase in mitochondrial cytochrome c release after 24 hrs by Western blot analysis; type: functional, cell-based
[11] = tested on: HepG2; experiment: Induction of apoptosis in human HepG2 cells assessed as increase in early apoptotic cells after 24 hrs by annexin V-FITC/propidium iodide staining-based FACS flow cytometric analysis; type: functional, cell-based
[12] = tested on: HepG2; experiment: Cell cycle arrest in human HepG2 cells assessed as accumulation at G2/M phase at 8 ug/mL after 48 hrs by propidium iodide staining-based flow cytometric analysis (reference value: 5%); type: functional
[13] = tested on: HepG2; experiment: Cell cycle arrest in human HepG2 cells assessed as accumulation at S phase at 8 ug/mL after 48 hrs by propidium iodide staining-based flow cytometric analysis (reference value: 31%); type: functional
[14] = tested on: HepG2; experiment: Cell cycle arrest in human HepG2 cells assessed as accumulation at G1 phase at 8 ug/mL after 48 hrs by propidium iodide staining-based flow cytometric analysis (reference value: 64%); type: functional
[15] = tested on: HepG2; experiment: Cell cycle arrest in human HepG2 cells assessed as accumulation at sub-G1 phase at 8 ug/mL after 48 hrs by propidium iodide staining-based flow cytometric analysis (reference value: 3%); type: functional
[16] = tested on: HepG2; experiment: Cell cycle arrest in human HepG2 cells assessed as accumulation at G2/M phase at 6.4 ug/mL after 48 hrs by propidium iodide staining-based flow cytometric analysis (reference value: 5%); type: functional
[17] = tested on: HepG2; experiment: Cell cycle arrest in human HepG2 cells assessed as accumulation at S phase at 6.4 ug/mL after 48 hrs by propidium iodide staining-based flow cytometric analysis (reference value: 31%); type: functional
[18] = tested on: HepG2; experiment: Cell cycle arrest in human HepG2 cells assessed as accumulation at G1 phase at 6.4 ug/mL after 48 hrs by propidium iodide staining-based flow cytometric analysis (reference value: 64%); type: functional
[19] = tested on: HepG2; experiment: Cell cycle arrest in human HepG2 cells assessed as accumulation at sub-G1 phase at 6.4 ug/mL after 48 hrs by propidium iodide staining-based flow cytometric analysis (reference value: 3%); type: functional
[20] = tested on: HepG2; experiment: Cell cycle arrest in human HepG2 cells assessed as accumulation at G2/M phase at 4.8 ug/mL after 48 hrs by propidium iodide staining-based flow cytometric analysis (reference value: 5%); type: functional
[21] = tested on: HepG2; experiment: Cell cycle arrest in human HepG2 cells assessed as accumulation at S phase at 4.8 ug/mL after 48 hrs by propidium iodide staining-based flow cytometric analysis (reference value: 31%); type: functional
[22] = tested on: HepG2; experiment: Cell cycle arrest in human HepG2 cells assessed as accumulation at G1 phase at 4.8 ug/mL after 48 hrs by propidium iodide staining-based flow cytometric analysis (reference value: 64%); type: functional
[23] = tested on: HepG2; experiment: Cell cycle arrest in human HepG2 cells assessed as accumulation at sub-G1 phase at 4.8 ug/mL after 48 hrs by propidium iodide staining-based flow cytometric analysis (reference value: 3%); type: functional
[24] = tested on: HepG2; experiment: Cell cycle arrest in human HepG2 cells assessed as accumulation at G2/M phase at 3.2 ug/mL after 48 hrs by propidium iodide staining-based flow cytometric analysis (reference value: 5%); type: functional
[25] = tested on: HepG2; experiment: Cell cycle arrest in human HepG2 cells assessed as accumulation at S phase at 3.2 ug/mL after 48 hrs by propidium iodide staining-based flow cytometric analysis (reference value: 31%); type: functional
[26] = tested on: HepG2; experiment: Cell cycle arrest in human HepG2 cells assessed as accumulation at G1 phase at 3.2 ug/mL after 48 hrs by propidium iodide staining-based flow cytometric analysis (reference value: 64%); type: functional
[27] = tested on: HepG2; experiment: Cell cycle arrest in human HepG2 cells assessed as accumulation at sub-G1 phase at 3.2 ug/mL after 48 hrs by propidium iodide staining-based flow cytometric analysis (reference value: 3%); type: functional
[28] = tested on: HepG2; experiment: Cell cycle arrest in human HepG2 cells assessed as accumulation at G2/M phase at 1.6 ug/mL after 48 hrs by propidium iodide staining-based flow cytometric analysis (reference value: 5%); type: functional
[29] = tested on: HepG2; experiment: Cell cycle arrest in human HepG2 cells assessed as accumulation at S phase at 1.6 ug/mL after 48 hrs by propidium iodide staining-based flow cytometric analysis (reference value: 31%); type: functional
[30] = tested on: HepG2; experiment: Cell cycle arrest in human HepG2 cells assessed as accumulation at G1 phase at 1.6 ug/mL after 48 hrs by propidium iodide staining-based flow cytometric analysis (reference value: 64%); type: functional

Q: What does the source list for COC1=CC(=O)c2c(O)cccc2C1=O?
A: Activity [1]: Active; Activity [2]: Non-toxic; Activity [3]: 67%; Activity [4]: 56%; Activity [5]: Active; Activity [6]: Dose-dependent effect; Activity [7]: Active; Activity [8]: Active; Activity [9]: Active; Activity [10]: Dose-dependent effect; Activity [11]: Dose-dependent effect; Activity [12]: 0%; Activity [13]: 46%; Activity [14]: 54%; Activity [15]: 33%; Activity [16]: 2%; Activity [17]: 52%; Activity [18]: 46%; Activity [19]: 18%; Activity [20]: 2%; Activity [21]: 66%; Activity [22]: 32%; Activity [23]: 6%; Activity [24]: 1%; Activity [25]: 64%; Activity [26]: 35%; Activity [27]: 4%; Activity [28]: 1%; Activity [29]: 49%; Activity [30]: 50%
